Patent publication US20250127772A1, “SPECIFIC TETRADENTATE COPPER CHELATORS FOR THE TREATMENT OF WILSON'S DISEASE” (GUANGDONG UNIVERSITY OF TECHNOLOGY, priority 2023, published 2025)
Several values for one entry are separate records, joined by “and”; a condition that tells them apart may be missing. Identical values can stand only once.

How the values were obtained:
[1] = oral administration in adults, WD treatment; cited from earlier work
[2] = test system: homozygous toxic-milk mouse model (TX model); type: in vivo; conditions: TX mice
Description: The selected drug-candidate TDMQ20 has been evaluated on the homozygous toxic-milk mouse model (TX model), a regular murine model of Wilson disease, suitable for evaluation of drug-candidates (for a review, see E. Reed et al., J. Neurochem., 146, 356-373, 2018). TX mice are bearing a naturally occurring point mutation on ATP7B resulting in a methionine changed for a valine, that causes the loss of copper transportation by this protein. C57BL/6 mice have no mutation on ATP7B and were used as control mice in the evaluation of TDMQ20. TX mice were provided by Sun Yat-Sen University (Guangzhou) and C57BL/6 mice by the Guangdong experimental animal center (Guangzhou) and all experiments were performed according to protocols approved by the Welfare Laboratory Animals Committee of the Guangdong University of Technology (approval n° GDUTXS2022083 dated on 3 Aug. 2022), in the framework of the 3 Rs principle.
[…] TX mice (WD) and 8-week-old C57BL/6 mice (Control) were used. TX mice (as WD, TDMQ-L, TDMQ-M, TDMQ-H groups, respectively) received the drug TDMQ20 by intragastric gavage twice a day for 14 consecutive days (at 0, 12.5, 25.0, 50.0 mg/kg in NaCl 0.9%). On the same schedule, C57BL/6 mice (as control group) received NaCl 0.9%. Treatment of WD mice with DPA (200 mg/kg) was used as comparison (DPA group). Six groups of 6 mice were used.
At the end of the treatment period, mice (10-week old) were placed in metabolic cages for 12 h in order to collect urine and feces. At the end of this 12 h-period, mice were anesthetized using 2.5% Avertin diluted in 0.9% NaCl at a dose of […] body weight and sacrificed. Cardiac blood was collected and left at room temperature for 30 minutes before centrifugation at 4° C. at 3000 r/min for 10 minutes to obtain serum samples. During this 30-min period, liver, kidney, brain and serum were also collected. Copper concentrations in urine and feces, serum, liver, kidney and brain were determined by inductively coupled plasma mass spectrometry (ICP-MS). Data analysis was carried out using SPSS Statistics software (version 26). Data are provided as mean values±standard error of the mean (SEM). Statistical analyses were performed using one-way ANOVA for liver, feces and urine, and by non-parametric test for serum, kidney, and brain. Differences with p>0.05 were considered as no significance (ns), * p<0.05, ** p<0.01, and *** p<0.001, n=6. Graph presentations were drawn with Prism GraphPad 8.0.2.

[3] = DPA 200 mg/kg/day gavage 14 days, mean of 6 mice ± SEM

Row | SMILES | adverse effects observed with time [1] | copper concentration in serum versus untreated WD mice ([2]; DPA 200 mg/kg/day) | Cu content Brain [2, 3] | Cu content Feces [2, 3] | Cu content Kidney [2, 3] | Cu content Liver [2, 3] | Cu content Serum [2, 3] | Cu content Urine [2, 3]
1 | NCCNCCNCCN [trientine, triethylene-tetramine] | bone marrow depression, anemia, skin rash and hemorrhagic gastritis |  |  |  |  |  |  | 
2 | CC(C)(S)[C@@H](N)C(=O)O [DPA, D-penicillamine, reference compound] | nephrotoxicity, aplasia, retinitis and neurological deterioration | not significantly higher | 3.7 ± 0.3 mg/kg | 96 ± 7 mg/kg | 5.4 ± 0.3 mg/kg | 265 mg/kg and 265 ± 9 mg/kg | 0.39 ± 0.03 mg/L | 2.8 ± 0.2 mg/L
